ChEMBL document CHEMBL1275440, “In vitro activity of telavancin against resistant gram-positive bacteria” (2008)
Converted amounts (≈) assume the structure as drawn. The source made the active and inactive calls. The calls are words filed in the database; no cut-off is given here.

Experiments:
Streptococcus viridans [1] = test: Antibacterial activity against Streptococcus viridans clinical isolate assessed as susceptibility level by broth microdilution method; format: functional
[2] = tested on: Streptococcus constellatus; test: Antibacterial activity against Streptococcus constellatus clinical isolate assessed as susceptibility level by broth microdilution method; format: functional
Streptococcus oralis [3] = test: Antibacterial activity against Streptococcus oralis clinical isolate assessed as susceptibility level by broth microdilution method; format: functional
[4] = tested on: Streptococcus intermedius; test: Antibacterial activity against Streptococcus intermedius clinical isolate assessed as susceptibility level by broth microdilution method; format: functional
Streptococcus mitis [5] = test: Antibacterial activity against Streptococcus mitis clinical isolate assessed as susceptibility level by broth microdilution method; format: functional
Streptococcus agalactiae [6] = test: Antibacterial activity against Streptococcus agalactiae group B clinical isolate assessed as susceptibility level by broth microdilution method; format: functional
Streptococcus pyogenes [7] = test: Antibacterial activity against Streptococcus pyogenes group A clinical isolate assessed as susceptibility level by broth microdilution method; format: functional
Streptococcus pneumoniae [8] = test: Antibacterial activity against penicillin intermediate Streptococcus pneumoniae clinical isolate assessed as susceptibility level by broth microdilution method; format: functional
Streptococcus viridans [9] = test: Antibacterial activity against Streptococcus viridans clinical isolate by broth microdilution method; format: functional
[10] = tested on: Streptococcus constellatus; test: Antibacterial activity against Streptococcus constellatus clinical isolate by broth microdilution method; format: functional
Streptococcus oralis [11] = test: Antibacterial activity against Streptococcus oralis clinical isolate by broth microdilution method; format: functional
[12] = tested on: Streptococcus intermedius; test: Antibacterial activity against Streptococcus intermedius clinical isolate by broth microdilution method; format: functional
Streptococcus mitis [13] = test: Antibacterial activity against Streptococcus mitis clinical isolate by broth microdilution method; format: functional
Streptococcus agalactiae [14] = test: Antibacterial activity against Streptococcus agalactiae group B clinical isolate by broth microdilution method; format: functional
Streptococcus pyogenes [15] = test: Antibacterial activity against Streptococcus pyogenes group A clinical isolate by broth microdilution method; format: functional
Streptococcus pneumoniae [16] = test: Antibacterial activity against multidrug-resistant Streptococcus pneumoniae clinical isolate by broth microdilution method; format: functional
Streptococcus pneumoniae [17] = test: Antibacterial activity against penicillin resistant Streptococcus pneumoniae clinical isolate by broth microdilution method; format: functional
Streptococcus pneumoniae [18] = test: Antibacterial activity against penicillin intermediate Streptococcus pneumoniae clinical isolate by broth microdilution method; format: functional
Streptococcus pneumoniae [19] = test: Antibacterial activity against multidrug-resistant Streptococcus pneumoniae clinical isolate assessed as susceptibility level by broth microdilution method; format: functional
Streptococcus pneumoniae [20] = test: Antibacterial activity against penicillin resistant Streptococcus pneumoniae clinical isolate assessed as susceptibility level by broth microdilution method; format: functional

Compound	Activity (Streptococcus pneumoniae [8])	MIC (Streptococcus viridans [9])	MIC50 (Streptococcus viridans [9])	MIC90 (Streptococcus viridans [9])	MIC [10]	MIC50 [10]	MIC90 [10]	MIC (Streptococcus oralis [11])	MIC50 (Streptococcus oralis [11])	MIC90 (Streptococcus oralis [11])	MIC [12]	MIC50 [12]	MIC90 [12]	MIC (Streptococcus mitis [13])	MIC50 (Streptococcus mitis [13])	MIC90 (Streptococcus mitis [13])	MIC50 (Streptococcus agalactiae [14])	MIC90 (Streptococcus agalactiae [14])	MIC50 (Streptococcus pyogenes [15])	MIC90 (Streptococcus pyogenes [15])	also measured
CC1(C)S[C@@H]2[C@H](NC(=O)Cc3ccccc3)C(=O)N2[C@H]1C(=O)O [PENICILLIN G]	0%	≤ 0.06 µg/mL	inactive	inactive	≤ 0.06 µg/mL	inactive	inactive	≤ 0.06 µg/mL	inactive	inactive	≤ 0.06 µg/mL	inactive	inactive	≤ 0.06 µg/mL	inactive	inactive	≤ 0.06 µg/mL	≤ 0.06 µg/mL	≤ 0.06 µg/mL	≤ 0.06 µg/mL	Activity (Streptococcus viridans [1]): 62%; Activity [2]: 62%; Activity (Streptococcus oralis [3]): 62%; Activity [4]: 62%; Activity (Streptococcus mitis [5]): 62%; Activity (Streptococcus agalactiae [6]): 96%; Activity (Streptococcus pyogenes [7]): 93%; MIC (Streptococcus agalactiae [14]): ≤ 0.06 µg/mL; MIC (Streptococcus pyogenes [15]): ≤ 0.06 µg/mL; MIC50 (Streptococcus pneumoniae [16]): 2 µg/mL (≈ 5.98 µM); MIC90 (Streptococcus pneumoniae [16]): > 2 µg/mL; MIC (Streptococcus pneumoniae [17]): 2 µg/mL (≈ 5.98 µM); MIC50 (Streptococcus pneumoniae [17]): 2 µg/mL (≈ 5.98 µM); MIC90 (Streptococcus pneumoniae [17]): > 2 µg/mL; MIC50 (Streptococcus pneumoniae [18]): 1 µg/mL (≈ 2.99 µM); MIC90 (Streptococcus pneumoniae [18]): 1 µg/mL (≈ 2.99 µM)
C[C@H]1COc2c(N3CCN(C)CC3)c(F)cc3c(=O)c(C(=O)O)cn1c23.C[C@H]1COc2c(N3CCN(C)CC3)c(F)cc3c(=O)c(C(=O)O)cn1c23.O [LEVOFLOXACIN]	92%	≤ 0.12 µg/mL	inactive	inactive	≤ 0.12 µg/mL	inactive	inactive	≤ 0.12 µg/mL	inactive	inactive	≤ 0.12 µg/mL	inactive	inactive	≤ 0.12 µg/mL	inactive	inactive	0.5 µg/mL	1 µg/mL	0.5 µg/mL	1 µg/mL	Activity (Streptococcus viridans [1]): 100%; Activity [2]: 100%; Activity (Streptococcus oralis [3]): 100%; Activity [4]: 100%; Activity (Streptococcus mitis [5]): 100%; Activity (Streptococcus agalactiae [6]): 99%; Activity (Streptococcus pyogenes [7]): 98%; Activity (Streptococcus pneumoniae [19]): 95%; Activity (Streptococcus pneumoniae [20]): 97%; MIC50 (Streptococcus pneumoniae [16]): 0.5 µg/mL; MIC90 (Streptococcus pneumoniae [16]): 1 µg/mL; MIC50 (Streptococcus pneumoniae [17]): 0.5 µg/mL; MIC90 (Streptococcus pneumoniae [17]): 1 µg/mL; MIC50 (Streptococcus pneumoniae [18]): 0.5 µg/mL; MIC90 (Streptococcus pneumoniae [18]): 1 µg/mL
O=C(O)c1cn(C2CC2)c2cc(N3CCNCC3)c(F)cc2c1=O																					MIC50 (Enterococcus faecalis): inactive; MIC90 (Enterococcus faecalis): inactive
CO/N=C(\C(=O)N[C@@H]1C(=O)N2C(C(=O)O)=C(COC(N)=O)CS[C@H]12)c1ccco1 [CEFUROXIME]	17%	≤ 0.12 µg/mL	inactive	inactive	≤ 0.12 µg/mL	inactive	inactive	≤ 0.12 µg/mL	inactive	inactive	≤ 0.12 µg/mL	inactive	inactive	≤ 0.12 µg/mL	inactive	inactive	≤ 0.12 µg/mL	≤ 0.12 µg/mL	≤ 0.12 µg/mL	0.25 µg/mL (≈ 0.589 µM)	Activity (Streptococcus pneumoniae [19]): 2%; Activity (Streptococcus pneumoniae [20]): 2%; MIC (Streptococcus agalactiae [14]): ≤ 0.12 µg/mL; MIC (Streptococcus pyogenes [15]): ≤ 0.12 µg/mL; MIC50 (Streptococcus pneumoniae [16]): > 4 µg/mL; MIC90 (Streptococcus pneumoniae [16]): > 4 µg/mL; MIC50 (Streptococcus pneumoniae [17]): > 4 µg/mL; MIC90 (Streptococcus pneumoniae [17]): > 4 µg/mL; MIC50 (Streptococcus pneumoniae [18]): 2 µg/mL (≈ 4.71 µM); MIC90 (Streptococcus pneumoniae [18]): 4 µg/mL (≈ 9.43 µM)
